According to PubChem BioAssay AID248 (DTP/NCI, 2004):
Values joined by “and” are separate entries in the source; they are usually repeats but may differ in a detail not shown here. Identical values can stand only once. Inconclusive results and toxic doses are left out. Rule as the data show it: active = T/C of 150% or more; inactive = T/C below 125%.

Test system: L1210 leukemia ip in BDF1 mice, survival T/C
Experiment: NCI In Vivo Anticancer Drug Screen. Data for tumor model L1210 Leukemia (intraperitoneal) in B6D2F1 (BDF1) mice
Conditions: endpoint: mean survival time, higher = longer survival
Outline: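 Tumor was transplanted into mice, which were then dosed with test compound or vehicle alone. Survival was recorded for each group, and the treated figure was expressed relative to the control figure.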

[1] = dose: 25.0 mg/kg/injection, schedule: Q01DX009 (ip), vehicle: Klucel (hydroxypropylcellulose) (HPC)
[2] = dose: 25.0 mg/kg/injection, schedule: Q04DX003 (ip), vehicle: Klucel (hydroxypropylcellulose) (HPC)
[3] = dose: 50.0 mg/kg/injection, schedule: Q04DX003 (ip), vehicle: Klucel (hydroxypropylcellulose) (HPC)
[4] = dose: 100.0 mg/kg/injection, schedule: Q01DX009 (ip), vehicle: Klucel (hydroxypropylcellulose) (HPC)
[5] = dose: 100.0 mg/kg/injection, schedule: Q04DX003 (ip), vehicle: Klucel (hydroxypropylcellulose) (HPC)
[6] = dose: 200.0 mg/kg/injection, schedule: Q01DX009 (ip), vehicle: Klucel (hydroxypropylcellulose) (HPC)
[7] = dose: 200.0 mg/kg/injection, schedule: Q04DX003 (ip), vehicle: Klucel (hydroxypropylcellulose) (HPC)
[8] = dose: 400.0 mg/kg/injection, schedule: Q01DX009 (ip), vehicle: Klucel (hydroxypropylcellulose) (HPC)
[9] = dose: 400.0 mg/kg/injection, schedule: Q04DX003 (ip), vehicle: Klucel (hydroxypropylcellulose) (HPC)
[10] = dose: 100.0 mg/kg/injection, schedule: Q01DX001 (ip), vehicle: saline
[11] = dose: 200.0 mg/kg/injection, schedule: Q01DX001 (ip), vehicle: saline
[12] = dose: 400.0 mg/kg/injection, schedule: Q01DX001 (ip), vehicle: saline
[13] = dose: 100.0 mg/kg/injection, schedule: Q04DX002 (ip), vehicle: Klucel (hydroxypropylcellulose) (HPC)
[14] = dose: 200.0 mg/kg/injection, schedule: Q04DX002 (ip), vehicle: Klucel (hydroxypropylcellulose) (HPC)
[15] = dose: 400.0 mg/kg/injection, schedule: Q04DX002 (ip), vehicle: Klucel (hydroxypropylcellulose) (HPC)
[16] = dose: 100.0 mg/kg/injection, schedule: Q04DX002 (ip), vehicle: saline
[17] = dose: 50.0 mg/kg/injection, schedule: Q01DX001 (ip), vehicle: carboxymethylcellulose (CMC)
[18] = dose: 100.0 mg/kg/injection, schedule: Q01DX001 (ip), vehicle: carboxymethylcellulose (CMC)
[19] = dose: 200.0 mg/kg/injection, schedule: Q01DX001 (ip), vehicle: carboxymethylcellulose (CMC)
[20] = dose: 400.0 mg/kg/injection, schedule: Q01DX001 (ip), vehicle: carboxymethylcellulose (CMC)
[21] = dose: 100.0 mg/kg/injection, schedule: Q04DX003 (ip), vehicle: saline with Tween-80
[22] = dose: 200.0 mg/kg/injection, schedule: Q04DX003 (ip), vehicle: saline with Tween-80
[23] = dose: 400.0 mg/kg/injection, schedule: Q04DX003 (ip), vehicle: saline with Tween-80

Measured: T/C

Cc1ccc(NC2=CCC(=O)OC2=O)cc1
inactive: [1] 93 % of control | [2] 100 % of control | dose: 50.0 mg/kg/injection, schedule: Q01DX009 (ip), vehicle: Klucel (hydroxypropylcellulose) (HPC) 88 % of control | [3] 105 % of control | [4] 90 % of control | [5] 97 % of control | [6] 97 % of control | [7] 97 % of control | [8] 88 % of control | [9] 92 % of control

CC(C)(O)C(O)(c1ccccc1)c1ccccc1
inactive: [10] 103 % of control | [11] 97 % of control | [12] 95 % of control

COc1ccc(C(=O)CC(Sc2ccccc2N)c2ccc(OC)cc2)cc1 (stereo not drawn)
inactive: [4] 87 % of control | [13] 98 % of control | [6] 91 % of control | [14] 95 % of control | [8] 87 % of control | [15] 113 % of control

Clc1ccc(/C=N/c2snc3ccccc23)cc1Cl
inactive: [13] 92 % of control | [14] 89 % of control | [15] 86 % of control

Cc1cc[n+](CCc2ccccc2)cc1
inactive: dose: 12.5 mg/kg/injection, schedule: Q01DX009 (ip), vehicle: carboxymethylcellulose (CMC) 97 % of control | dose: 25.0 mg/kg/injection, schedule: Q01DX009 (ip), vehicle: carboxymethylcellulose (CMC) 97 % of control | dose: 50.0 mg/kg/injection, schedule: Q01DX009 (ip), vehicle: carboxymethylcellulose (CMC) 105 % of control | dose: 50.0 mg/kg/injection, schedule: Q04DX003 (ip), vehicle: saline 100 % of control | dose: 75.0 mg/kg/injection, schedule: Q01DX001 (ip), vehicle: carboxymethylcellulose (CMC) 108 % of control | dose: 75.0 mg/kg/injection, schedule: Q01DX001 (ip), vehicle: other 104 % of control | dose: 100.0 mg/kg/injection, schedule: Q04DX003 (ip), vehicle: saline 92 % of control and 100 % of control | dose: 150.0 mg/kg/injection, schedule: Q01DX001 (ip), vehicle: carboxymethylcellulose (CMC) 115 % of control | dose: 150.0 mg/kg/injection, schedule: Q01DX001 (ip), vehicle: other 104 % of control | dose: 300.0 mg/kg/injection, schedule: Q01DX001 (ip), vehicle: other 105 % of control

N#CCc1cn(-c2ccccc2)nn1
inactive: dose: 9.38 mg/kg/injection, schedule: Q01DX001 (ip), vehicle: other 101 % of control | dose: 18.75 mg/kg/injection, schedule: Q01DX001 (ip), vehicle: other 96 % of control | dose: 37.5 mg/kg/injection, schedule: Q01DX001 (ip), vehicle: other 97 % of control

COc1ccc(-c2cc(=O)c3c(O)c(OC)c(O)cc3o2)cc1
inactive: dose: 20.0 mg/kg/injection, schedule: Q01DX Z (ip), vehicle: saline 101 % of control | dose: 40.0 mg/kg/injection, schedule: Q01DX Z (ip), vehicle: saline 108 % of control | dose: 80.0 mg/kg/injection, schedule: Q01DX Z (ip), vehicle: saline 95 % of control

O=C(CCN1CCCCC1)c1cc(Cl)ccc1Cl
inactive: dose: 12.5 mg/kg/injection, schedule: Q01DX009 (ip), vehicle: saline 93 % of control | dose: 25.0 mg/kg/injection, schedule: Q01DX009 (ip), vehicle: saline 97 % of control and 98 % of control | dose: 25.0 mg/kg/injection, schedule: Q04DX002 (ip), vehicle: saline 103 % of control | dose: 50.0 mg/kg/injection, schedule: Q01DX009 (ip), vehicle: saline 93 % of control | dose: 50.0 mg/kg/injection, schedule: Q04DX002 (ip), vehicle: saline 98 % of control | dose: 100.0 mg/kg/injection, schedule: Q01DX009 (ip), vehicle: saline 91 % of control | [16] 100 % of control and 88 % of control

C=CC(C)C(C)CC (stereo not drawn)
inactive: [17] 104 % of control | [18] 95 % of control | [19] 93 % of control | [20] 101 % of control

CC(=O)N[C@H]1CC[C@H]2[C@@H]3CCC4=CC(=O)CC[C@]4(C)[C@H]3CC[C@]12C
inactive: [21] 86 % of control | [22] 92 % of control | [23] 86 % of control

CC[C@@H]1C[C@H]2CC3c4[nH]c5ccc(OC)cc5c4CCN(C2)C31
inactive: dose: 25.0 mg/kg/injection, schedule: Q01DX001 (ip), vehicle: saline with Tween-80 96 % of control | dose: 50.0 mg/kg/injection, schedule: Q01DX001 (ip), vehicle: saline with Tween-80 96 % of control | dose: 100.0 mg/kg/injection, schedule: Q01DX001 (ip), vehicle: saline with Tween-80 93 % of control and 109 % of control

CC(C)(CNCc1ccco1)[N+](=O)[O-]
inactive: dose: 50.0 mg/kg/injection, schedule: Q01DX009 (ip), vehicle: other 103 % of control | dose: 100.0 mg/kg/injection, schedule: Q01DX009 (ip), vehicle: other 95 % of control | dose: 200.0 mg/kg/injection, schedule: Q01DX009 (ip), vehicle: other 106 % of control

COC(=O)CC(=O)/C(=C/C(C/C=C(\C(=O)CC(=O)OC)C(=O)OC)OC)C(=O)OC (stereo not drawn)
inactive: [17] 103 % of control | [18] 101 % of control | [19] 101 % of control | [20] 100 % of control

O=C(O)CNc1ccc(S(=O)(=O)c2ccc(NCC(=O)O)cc2)cc1
inactive: [10] 102 % of control | [11] 102 % of control | [12] 98 % of control

CCC(C)C(CN)(CCCN1CCOCC1)c1cccc2ccccc12 (stereo not drawn)
inactive: [21] 93 % of control | [22] 95 % of control | [23] 95 % of control

COc1cc2c(cc1OC)N=Cc1cccn1C2
inactive: dose: 25.0 mg/kg/injection, schedule: Q04DX002 (ip), vehicle: saline with Tween-80 94 % of control | dose: 50.0 mg/kg/injection, schedule: Q04DX002 (ip), vehicle: saline with Tween-80 97 % of control | dose: 100.0 mg/kg/injection, schedule: Q04DX002 (ip), vehicle: saline with Tween-80 90 % of control

O=C1CN=C(c2ccccc2Cl)c2cc([N+](=O)[O-])ccc2N1
inactive: [13] 93 % of control | [14] 108 % of control | [15] 86 % of control

COc1cc(/C=C2\C(O)C3CCN2CC3)cc(OC)c1OC (stereo not drawn)
inactive: [16] 115 % of control | dose: 200.0 mg/kg/injection, schedule: Q04DX002 (ip), vehicle: saline 118 % of control

NC(=O)c1ccccc1NC(=O)Nc1cccc(C(F)(F)F)c1
inactive: [4] 86 % of control | [13] 102 % of control | [6] 89 % of control | [14] 105 % of control | [8] 93 % of control | [15] 108 % of control

NC(=O)C1(NC2CCCCC2)CCN(Cc2ccccc2)CC1
inactive: dose: 50.0 mg/kg/injection, schedule: Q01DX009 (ip), vehicle: gum acacia 100 % of control | dose: 100.0 mg/kg/injection, schedule: Q01DX009 (ip), vehicle: gum acacia 100 % of control | dose: 100.0 mg/kg/injection, schedule: Q04DX003 (ip), vehicle: gum acacia 96 % of control | dose: 200.0 mg/kg/injection, schedule: Q01DX009 (ip), vehicle: gum acacia 93 % of control | dose: 200.0 mg/kg/injection, schedule: Q04DX003 (ip), vehicle: gum acacia 96 % of control

[Cl][Rh][Cl].c1cn[nH]c1.c1cn[nH]c1.c1cn[nH]c1.c1cn[nH]c1
inactive: dose: 12.5 mg/kg/injection, schedule: Q01DX009 (ip), vehicle: Klucel (hydroxypropylcellulose) (HPC) 98 % of control | dose: 12.5 mg/kg/injection, schedule: Q04DX003 (ip), vehicle: Klucel (hydroxypropylcellulose) (HPC) 90 % of control | [1] 89 % of control | [2] 95 % of control | [3] 102 % of control

CCn1cc([N+](=O)[O-])ccc1=O
inactive: [4] 104 % of control | [5] 98 % of control | [6] 101 % of control | [7] 96 % of control | [8] 98 % of control | [9] 107 % of control
